Values quoted from earlier work as cited in patent US20230086007A1, “USE OF DENATONIUM BENZOATE AS A SEED TREATMENT FOR CROPS AS BIRD AND/OR INSECT REPELLENT” (KWS SAAT SE & Co. KGaA, priority 2020, published 2023).

Tested on: maize
Conditions: maize seed treatment; cited from earlier work

Structure (SMILES): CN(C)C(=S)SSC(=S)N(C)C [Thiram]
- effect on early seedling vigour: significant reduction in early seedling vigour
